In PubChem BioAssay AID248 (DTP/NCI, 2004):
Toxic doses and inconclusive results are not listed. Rule as the data show it: active = T/C of 150% or more; inactive = T/C below 125%.

Test system: L1210 leukemia ip in BDF1 mice, survival T/C
Experiment: NCI In Vivo Anticancer Drug Screen. Data for tumor model L1210 Leukemia (intraperitoneal) in B6D2F1 (BDF1) mice
Settings: endpoint: mean survival time, higher = longer survival
How it was run: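 Transplantable tumor model; survival measured in treated vs vehicle control mice. Value = treated/control.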

[1] = dose: 100.0 mg/kg/injection, schedule: Q04DX003 (ip), vehicle: saline with Tween-80
[2] = dose: 200.0 mg/kg/injection, schedule: Q04DX003 (ip), vehicle: saline with Tween-80
[3] = dose: 400.0 mg/kg/injection, schedule: Q04DX003 (ip), vehicle: saline with Tween-80
[4] = dose: 50.0 mg/kg/injection, schedule: Q01DX009 (ip), vehicle: saline
[5] = dose: 100.0 mg/kg/injection, schedule: Q01DX009 (ip), vehicle: saline
[6] = dose: 200.0 mg/kg/injection, schedule: Q01DX009 (ip), vehicle: saline
[7] = dose: 400.0 mg/kg/injection, schedule: Q01DX009 (ip), vehicle: saline
[8] = dose: 100.0 mg/kg/injection, schedule: Q01DX001 (ip), vehicle: carboxymethylcellulose (CMC)
[9] = dose: 200.0 mg/kg/injection, schedule: Q01DX001 (ip), vehicle: carboxymethylcellulose (CMC)
[10] = dose: 400.0 mg/kg/injection, schedule: Q01DX001 (ip), vehicle: carboxymethylcellulose (CMC)
[11] = dose: 25.0 mg/kg/injection, schedule: Q01DX009 (ip), vehicle: saline
[12] = dose: 100.0 mg/kg/injection, schedule: Q01DX001 (ip), vehicle: saline
[13] = dose: 200.0 mg/kg/injection, schedule: Q01DX001 (ip), vehicle: saline
[14] = dose: 400.0 mg/kg/injection, schedule: Q01DX001 (ip), vehicle: saline
[15] = dose: 100.0 mg/kg/injection, schedule: Q04DX003 (ip), vehicle: saline sonified
[16] = dose: 200.0 mg/kg/injection, schedule: Q04DX003 (ip), vehicle: saline sonified
[17] = dose: 400.0 mg/kg/injection, schedule: Q04DX003 (ip), vehicle: saline sonified
[18] = dose: 50.0 mg/kg/injection, schedule: Q04DX003 (ip), vehicle: saline with Tween-80
[19] = dose: 100.0 mg/kg/injection, schedule: Q01DX009 (ip), vehicle: saline with Tween-80
[20] = dose: 200.0 mg/kg/injection, schedule: Q01DX009 (ip), vehicle: saline with Tween-80

Measured: T/C

Cc1ccccc1N1C(N)=NC(N)=NC1(C)C
inactive: dose: 6.25 mg/kg/injection, schedule: Q01DX009 (ip), vehicle: Klucel (hydroxypropylcellulose) (HPC) 89 % of control | dose: 12.5 mg/kg/injection, schedule: Q01DX009 (ip), vehicle: Klucel (hydroxypropylcellulose) (HPC) 91 % of control | dose: 25.0 mg/kg/injection, schedule: Q01DX009 (ip), vehicle: Klucel (hydroxypropylcellulose) (HPC) 100 % of control | dose: 50.0 mg/kg/injection, schedule: Q01DX009 (ip), vehicle: Klucel (hydroxypropylcellulose) (HPC) 96 % of control | dose: 75.0 mg/kg/injection, schedule: Q01DX001 (ip), vehicle: saline 103 % of control

CN(C)C(=O)Nc1cccc(OC(=O)NC2CCCCCCC2)c1
inactive: [1] 91 % of control | [2] 100 % of control | [3] 96 % of control

O=[N+]([O-])c1ccc(NCc2ccccc2)c2nonc12
inactive: [4] 113 % of control | [5] 98 % of control | [6] 113 % of control

COc1ccc(OC)c(NC(=O)Nc2ccc(OC)cc2OC)c1
inactive: [5] 110 % of control | [6] 113 % of control | [7] 108 % of control

Cc1cc(C)c(C(=O)N/N=C/c2ccc(N(CCCl)CCCl)cc2)c(=O)[nH]1
inactive: dose: 50.0 mg/kg/injection, schedule: Q01DX001 (ip), vehicle: carboxymethylcellulose (CMC) 97 % of control | [8] 100 % of control | [9] 103 % of control | [10] 92 % of control

CCCCCCCCCCCCc1ccc2c(c1)CCc1ccccc1-2
inactive: [8] 97 % of control | [9] 92 % of control | [10] 90 % of control

COc1ccnc(SCc2ccccc2)n1
inactive: dose: 100.0 mg/kg/injection, schedule: Q01DX009 (ip), vehicle: Klucel (hydroxypropylcellulose) (HPC) 97 % of control | dose: 100.0 mg/kg/injection, schedule: Q04DX003 (ip), vehicle: Klucel (hydroxypropylcellulose) (HPC) 100 % of control | dose: 200.0 mg/kg/injection, schedule: Q01DX009 (ip), vehicle: Klucel (hydroxypropylcellulose) (HPC) 95 % of control | dose: 200.0 mg/kg/injection, schedule: Q04DX003 (ip), vehicle: Klucel (hydroxypropylcellulose) (HPC) 100 % of control | dose: 400.0 mg/kg/injection, schedule: Q04DX003 (ip), vehicle: Klucel (hydroxypropylcellulose) (HPC) 102 % of control

CCCCCNC(C)C(=O)c1ccccc1 (stereo not given)
inactive: dose: 12.5 mg/kg/injection, schedule: Q04DX003 (ip), vehicle: saline 87 % of control | [11] 92 % of control | dose: 25.0 mg/kg/injection, schedule: Q04DX003 (ip), vehicle: saline 94 % of control | [4] 100 % of control | dose: 50.0 mg/kg/injection, schedule: Q04DX003 (ip), vehicle: saline 94 % of control | dose: 100.0 mg/kg/injection, schedule: Q04DX003 (ip), vehicle: saline 97 % of control

Cc1nn(C)c(N)c1C#N
inactive: [11] 97 % of control | [4] 97 % of control | dose: 100.0 mg/kg/injection, schedule: Q01DX001 (ip), vehicle: Klucel (hydroxypropylcellulose) (HPC) 107 % of control | [5] 111 % of control | dose: 200.0 mg/kg/injection, schedule: Q01DX001 (ip), vehicle: Klucel (hydroxypropylcellulose) (HPC) 104 % of control | [6] 106 % of control | dose: 400.0 mg/kg/injection, schedule: Q01DX001 (ip), vehicle: Klucel (hydroxypropylcellulose) (HPC) 104 % of control | [7] 100 % of control

CS(=O)(=O)OCCN(CCOS(C)(=O)=O)c1ccc([N+](=O)[O-])c(Cl)c1
inactive: dose: 50.0 mg/kg/injection, schedule: Q01DX001 (ip), vehicle: saline 96 % of control | [12] 96 % of control | [13] 100 % of control | [14] 91 % of control

Cc1nc(N)[nH]c(=O)c1CCCNS(=O)(=O)c1ccc(CNC(=O)CBr)cc1
inactive: dose: 37.5 mg/kg/injection, schedule: Q01DX001 (ip), vehicle: Klucel (hydroxypropylcellulose) (HPC) 107 % of control | dose: 75.0 mg/kg/injection, schedule: Q01DX001 (ip), vehicle: Klucel (hydroxypropylcellulose) (HPC) 94 % of control | dose: 150.0 mg/kg/injection, schedule: Q01DX001 (ip), vehicle: Klucel (hydroxypropylcellulose) (HPC) 96 % of control

O=[N+]([O-])c1ccc(OCc2cccc(Cl)c2S(=O)(=O)F)c(Cl)c1
inactive: dose: 100.0 mg/kg/injection, schedule: Q04DX003 (ip), vehicle: gum acacia 98 % of control | dose: 200.0 mg/kg/injection, schedule: Q04DX003 (ip), vehicle: gum acacia 104 % of control | dose: 400.0 mg/kg/injection, schedule: Q04DX003 (ip), vehicle: gum acacia 97 % of control

COC(=O)C12CCc3cc(OC)ccc3C1=CC(=O)C2 (stereo not given)
inactive: [15] 101 % of control | [16] 95 % of control | [17] 94 % of control

Cc1cc(C)c(C#[N+][O-])c(C)c1
inactive: dose: 25.0 mg/kg/injection, schedule: Q04DX003 (ip), vehicle: saline with Tween-80 93 % of control | [18] 98 % of control

O=C(CCCl)Oc1c(Cl)c(Cl)c(Cl)c(Cl)c1Cl
inactive: dose: 50.0 mg/kg/injection, schedule: Q01DX001 (ip), vehicle: saline with Tween-80 98 % of control | dose: 50.0 mg/kg/injection, schedule: Q01DX009 (ip), vehicle: saline with Tween-80 111 % of control | [18] 95 % of control | dose: 100.0 mg/kg/injection, schedule: Q01DX001 (ip), vehicle: saline with Tween-80 96 % of control | [19] 103 % of control | [1] 97 % of control | dose: 200.0 mg/kg/injection, schedule: Q01DX001 (ip), vehicle: saline with Tween-80 100 % of control | [20] 100 % of control | [2] 93 % of control

CN(C)C(=O)ON=C1c2ccccc2-c2ccccc21
inactive: [12] 103 % of control | [13] 97 % of control | [14] 103 % of control

CCOC(=O)C/C(=N\Nc1ccc([N+](=O)[O-])cc1[N+](=O)[O-])c1ccccc1
inactive: [15] 96 % of control | [16] 96 % of control | [17] 91 % of control

O=C(O)C1CC=CCC1C(=O)Nc1cccc(O)c1 (stereo not given)
inactive: dose: 100.0 mg/kg/injection, schedule: Q04DX002 (ip), vehicle: Klucel (hydroxypropylcellulose) (HPC) 99 % of control | dose: 200.0 mg/kg/injection, schedule: Q04DX002 (ip), vehicle: Klucel (hydroxypropylcellulose) (HPC) 105 % of control | dose: 400.0 mg/kg/injection, schedule: Q04DX002 (ip), vehicle: Klucel (hydroxypropylcellulose) (HPC) 99 % of control

CCC(CO)NC(=O)Nc1cccc2ccccc12 (stereo not given)
inactive: [18] 105 % of control | [19] 102 % of control | [1] 105 % of control | [20] 96 % of control | [2] 100 % of control | dose: 400.0 mg/kg/injection, schedule: Q01DX009 (ip), vehicle: saline with Tween-80 96 % of control | [3] 94 % of control
